According to US20130116241A1, “NOVEL INHIBITOR COMPOUNDS OF PHOSPHODIESTERASE TYPE 10A” (AbbVie Inc., priority 2011, published 2013):
Structures can show the parent of a compound that is named as a salt.

Target: human PDE10A (UniProt Q9Y233)
Assay: Measurement of PDE activity (recombinant enzyme, HTRF cAMP kit)
Type: biochemical
Conditions: Table 1, substrate 20 nM for PDE10, 60 minutes at 29 C
Procedure, shortened: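 HTRF detection of cAMP left after hydrolysis, expressed as percent of uninhibited control to derive IC50. Reaction: serially diluted inhibitor mixed with recombinant enzyme, started with 20 nM cAMP, 60 min at 29 °C in Tris-HCl pH 7.5 buffer containing MgCl2 and BSA.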

Chain of human PDE10A (Q9Y233 290-1055 limits assumed): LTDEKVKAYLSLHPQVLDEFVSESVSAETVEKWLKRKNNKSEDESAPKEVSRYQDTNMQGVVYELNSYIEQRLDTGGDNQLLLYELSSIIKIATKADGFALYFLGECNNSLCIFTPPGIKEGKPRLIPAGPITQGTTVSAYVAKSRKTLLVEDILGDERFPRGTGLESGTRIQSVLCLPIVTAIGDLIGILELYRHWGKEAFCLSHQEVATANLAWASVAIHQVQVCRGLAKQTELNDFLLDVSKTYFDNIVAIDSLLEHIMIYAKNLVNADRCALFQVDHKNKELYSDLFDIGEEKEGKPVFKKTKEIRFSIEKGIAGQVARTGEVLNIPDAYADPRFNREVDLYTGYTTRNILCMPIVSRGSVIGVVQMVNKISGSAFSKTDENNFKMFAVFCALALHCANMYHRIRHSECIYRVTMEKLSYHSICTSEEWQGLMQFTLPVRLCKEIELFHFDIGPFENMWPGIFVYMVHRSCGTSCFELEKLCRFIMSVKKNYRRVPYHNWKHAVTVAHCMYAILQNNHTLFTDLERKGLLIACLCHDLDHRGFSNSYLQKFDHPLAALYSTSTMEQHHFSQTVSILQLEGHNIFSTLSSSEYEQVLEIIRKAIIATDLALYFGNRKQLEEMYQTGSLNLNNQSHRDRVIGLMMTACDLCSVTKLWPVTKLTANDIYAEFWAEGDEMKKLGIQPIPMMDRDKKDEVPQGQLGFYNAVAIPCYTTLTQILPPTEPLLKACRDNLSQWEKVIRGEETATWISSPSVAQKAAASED

Row | SMILES | IC50 [µM]
1 | O=c1c2c(C3=CCNCC3)cccc2cnn1CCc1cn2ccccc2n1 [compound 375, hydrochloride] | < 0.1

Same assay, conditions: Table 1, substrate 20 nM for PDE10, 60 minutes at 29 C, read-out: IC50

Row | SMILES | IC50 [µM]
2 | O=c1c2c(C3CCOCC3)cccc2cnn1CCc1cn2ccccc2n1 [compound 355, 2-[2-(imidazo[1,2-a]pyridin-2-yl)ethyl]-8-(tetrahydro-2H-pyran-4-yl)phthalazin-1(2H)-one] | < 0.1
3 | O=c1c2c(-c3ccco3)cccc2cnn1CCc1cn2ccccc2n1 [compound 358, hydrochloride] | 0.1 to 0.2
4 | Cn1cc(-c2cccc3cnn(CCc4cn5ccccc5n4)c(=O)c23)cn1 [compound 359, hydrochloride] | < 0.1
5 | O=c1c2c(C3CCNCC3)cccc2cnn1CCc1cn2c(n1)CCCC2 [compound 365, hydrochloride] | < 0.1
6 | NCC1CC(Cl)CN1c1cccc2cnn(CCc3cn4ccccc4n3)c(=O)c12 (stereo not drawn) [compound 366, trifluoroacetate] | < 0.1
7 | O=c1c2c(-c3ccncc3)cccc2c(-c2ccncc2)nn1CCc1cn2ccccc2n1 [compound 367, 2-[2-(imidazo[1,2-a]pyridin-2-yl)ethyl]-4,8-di(pyridin-4-yl)phthalazin-1(2H)-one] | < 0.1
8 | O=c1c2c(-c3ccncc3)cccc2c(Br)nn1CCc1cn2ccccc2n1 [compound 370, 4-bromo-2-[2-(imidazo[1,2-a]pyridin-2-yl)ethyl]-8-(pyridin-4-yl)phthalazin-1(2H)-one] | < 0.1
9 | O=c1c2c(N3CC4CCOC4C3)cccc2cnn1CCc1cn2ccccc2n1 (stereo not drawn) [compound 374, hydrochloride] | 0.2 to 0.5
10 | O=c1c2c(N[C@H]3CCOC3)cccc2cnn1CCc1cn2ccccc2n1 [compound 376, 2-[2-(imidazo[1,2-a]pyridin-2-yl)ethyl]-8-[(3S)-tetrahydrofuran-3-ylamino]phthalazin-1(2H)-one] | < 0.1
11 | O=c1c2c(N[C@@H]3CCOC3)cccc2cnn1CCc1cn2ccccc2n1 [compound 377, 2-[2-(imidazo[1,2-a]pyridin-2-yl)ethyl]-8-[(3R)-tetrahydrofuran-3-ylamino]phthalazin-1(2H)-one] | < 0.1
12 | O=c1c2c(OCC3COC(CO)CO3)cccc2cnn1CCc1cn2ccccc2n1 (stereo not drawn) [compound 378, 8-{[5-(hydroxymethyl)-1,4-dioxan-2-yl]methoxy}-2-[2-(imidazo[1,2-a]pyridin-2-yl)ethyl]phthalazin-1(2H)-one] | 0.2 to 0.5
13 | O=c1c2c(OCc3ccncc3)cccc2cnn1CCc1cn2ccccc2n1 [compound 380, 2-[2-(imidazo[1,2-a]pyridin-2-yl)ethyl]-8-(pyridin-4-ylmethoxy)phthalazin-1(2H)-one] | 0.1 to 0.2
14 | O=c1c2c(Oc3cccnc3)cccc2cnn1CCc1cn2ccccc2n1 [compound 382, 2-[2-(imidazo[1,2-a]pyridin-2-yl)ethyl]-8-(pyridin-3-yloxy)phthalazin-1(2H)-one] | < 0.1
15 | O=c1c2c(NCC3COC3)cccc2cnn1CCc1cn2ccccc2n1 [compound 383, 2-[2-(imidazo[1,2-a]pyridin-2-yl)ethyl]-8-[(oxetan-3-ylmethyl)amino]phthalazin-1(2H)-one] | < 0.1
16 | O=c1c2c(NC3CCOCC3)cccc2cnn1CCc1cn2ccccc2n1 [compound 384, 2-[2-(imidazo[1,2-a]pyridin-2-yl)ethyl]-8-(tetrahydro-2H-pyran-4-ylamino)phthalazin-1(2H)-one] | 0.1 to 0.2
17 | CN1CC(Nc2cccc3cnn(CCc4cn5ccccc5n4)c(=O)c23)C1 [compound 385, 2-[2-(imidazo[1,2-a]pyridin-2-yl)ethyl]-8-[(1-methylazetidin-3-yl)amino]phthalazin-1(2H)-one] | 0.2 to 0.5
18 | CN(c1cccc2cnn(CCc3cn4ccccc4n3)c(=O)c12)C1COC1 [compound 387, 2-[2-(imidazo[1,2-a]pyridin-2-yl)ethyl]-8-[methyl(oxetan-3-yl)amino]phthalazin-1(2H)-one] | < 0.1
19 | O=c1c2c(NC3CCNCC3)cccc2cnn1CCc1cn2ccccc2n1 [compound 388, dihydrochloride] | < 0.1
20 | CC(=O)N1CCCC(Nc2cccc3cnn(CCc4cn5ccccc5n4)c(=O)c23)C1 (stereo not drawn) [compound 389, hydrochloride] | 0.1 to 0.2
21 | CC(=O)N1CCC(Nc2cccc3cnn(CCc4cn5ccccc5n4)c(=O)c23)CC1 [compound 390, 8-[(1-acetylpiperidin-4-yl)amino]-2-[2-(imidazo[1,2-a]pyridin-2-yl)ethyl]phthalazin-1(2H)-one] | 0.2 to 0.5

Row | SMILES | IC50 [µM]
22 | O=c1c2c(NC3CCOC3)cccc2cnn1CCc1cn2ccccc2n1 (stereo not drawn) [compound 391, 2-[2-(imidazo[1,2-a]pyridin-2-yl)ethyl]-8-(tetrahydrofuran-3-ylamino)phthalazin-1(2H)-one] | < 0.1
23 | O=c1c2c(NC3CCCOC3)cccc2cnn1CCc1cn2ccccc2n1 (stereo not drawn) [compound 392, hydrochloride] | < 0.1
24 | O=c1c2c(NC3CCCNC3)cccc2cnn1CCc1cn2ccccc2n1 (stereo not drawn) [compound 393, dihydrochloride] | < 0.1
25 | CN(CC1(C)COC1)c1cccc2cnn(CCc3cn4ccccc4n3)c(=O)c12 [compound 394, 2-[2-(imidazo[1,2-a]pyridin-2-yl)ethyl]-8-{methyl[(3-methyloxetan-3-yl)methyl]amino}phthalazin-1(2H)-one] | 0.2 to 0.5
26 | O=c1c2c(NC3COC3)cccc2cnn1CCc1cn2ccccc2n1 [compound 395, 2-[2-(imidazo[1,2-a]pyridin-2-yl)ethyl]-8-(oxetan-3-ylamino)phthalazin-1(2H)-one] | < 0.1
27 | O=c1c2cccc(N3CCOCC3)c2cnn1CCc1ccc2ccccc2n1 [compound 397, hydrochloride] | < 0.1
28 | O=c1c2cccc(-c3ccncc3)c2cnn1CCc1nc2ccccc2[nH]1 [compound 398, 2-[2-(1H-benzimidazol-2-yl)ethyl]-5-(pyridin-4-yl)phthalazin-1(2H)-one] | 0.1 to 0.2
29 | O=c1c2ccccc2c(-c2cccnc2)nn1CCc1ccc2ccccc2n1 [compound 399, 4-(pyridin-3-yl)-2-[2-(quinolin-2-yl)ethyl]phthalazin-1(2H)-one] | < 0.1
30 | O=c1c2cccc(-c3ccncc3)c2cnn1CCc1cn2ccccc2n1 [compound 401, 2-[2-(imidazo[1,2-a]pyridin-2-yl)ethyl]-5-(pyridin-4-yl)phthalazin-1(2H)-one] | < 0.1
31 | O=c1c2cccc(-c3cccnc3)c2cnn1CCc1ccc2ccccc2n1 [compound 402, 5-(pyridin-3-yl)-2-[2-(quinolin-2-yl)ethyl]phthalazin-1(2H)-one] | < 0.1
32 | CC1(CNc2cccc3cnn(CCc4cn5ccccc5n4)c(=O)c23)COC1 [compound 403] | < 0.1
33 | O=c1c2c(-c3ccncc3)ccnc2cnn1CCc1ccc2ccccc2n1 [compound 404, 4-(pyridin-4-yl)-6-[2-(quinolin-2-yl)ethyl]pyrido[2,3-d]pyridazin-5(6H)-one] | < 0.1
34 | O=c1c2c(N3CCOCC3)ccnc2cnn1CCc1ccc2ccccc2n1 [compound 405, 4-(morpholin-4-yl)-6-[2-(quinolin-2-yl)ethyl]pyrido[2,3-d]pyridazin-5(6H)-one] | < 0.1
35 | O=c1c2c(NC3COC3)ccnc2cnn1CCc1ccc2ccccc2n1 [compound 406, 4-(oxetan-3-ylamino)-6-[2-(quinolin-2-yl)ethyl]pyrido[2,3-d]pyridazin-5(6H)-one] | < 0.1
36 | COc1ccc2nc(/C=C/n3ccc4scc(-c5ccncc5)c4c3=O)ccc2c1 [compound 410] | < 0.1
37 | O=c1c2c(-c3ccncc3)cccc2ccn1/C=C/c1ncc2ccccc2n1 [compound 411, 8-(pyridin-4-yl)-2-[(E)-2-(quinazolin-2-yl)ethenyl]isoquinolin-1(2H)-one] | 0.1 to 0.2
38 | O=c1c2c(-c3ccncc3)csc2ccn1/C=C/c1ccc2cc(Cl)ccc2n1 [compound 412, 5-[(E)-2-(6-chloroquinolin-2-yl)ethenyl]-3-(pyridin-4-yl)thieno[3,2-c]pyridin-4(5H)-one] | < 0.1
39 | Cc1cc2ccccc2nc1/C=C/n1ccc2scc(-c3ccncc3)c2c1=O [compound 413, 5-[(E)-2-(3-methylquinolin-2-yl)ethenyl]-3-(pyridin-4-yl)thieno[3,2-c]pyridin-4(5H)-one] | < 0.1
40 | O=c1c2c(-c3ccncc3)csc2ccn1/C=C/c1nc2ccccc2s1 [compound 415, 5-[(E)-2-(1,3-benzothiazol-2-yl)ethenyl]-3-(pyridin-4-yl)thieno[3,2-c]pyridin-4(5H)-one] | < 0.1
41 | O=c1c2c(-c3ccncc3)csc2ccn1/C=C/c1ccc2ccccc2n1 [compound 416, 3-(pyridin-4-yl)-5-[(E)-2-(quinolin-2-yl)ethenyl]thieno[3,2-c]pyridin-4(5H)-one] | < 0.1

Test system: rats
Assay: not given
Conditions: compound alone; cited from earlier work

Row | SMILES | catalepsy on its own
42 | COc1ccc(Cc2nccc3cc(OC)c(OC)cc23)cc1OC [Papaverine, papaverine] | did not cause catalepsy on its own

Same assay, conditions: with haloperidol; cited from earlier work

Row | SMILES | cataleptic effect of the D2 receptor antagonist haloperidol
43 | COc1ccc(Cc2nccc3cc(OC)c(OC)cc23)cc1OC [Papaverine, papaverine] | potentiated the cataleptic effect

Test system: rats
Assay: not given
Conditions: cited from earlier work

Row | SMILES | hyperactivity induced by PCP
44 | COc1ccc(Cc2nccc3cc(OC)c(OC)cc23)cc1OC [Papaverine, papaverine] | reduced hyperactivity

Test system: rats
Assay: not given
Conditions: rat, in vivo; cited from earlier work

Row | SMILES | reduction of amphetamine-induced hyperactivity
45 | COc1ccc(Cc2nccc3cc(OC)c(OC)cc23)cc1OC [Papaverine, papaverine] | insignificant
